These are literature values, as cited in PMC3433420 (PLoS ONE, 2012).

Like-named read-outs stand apart in the source and are kept apart here.

The target of the data set is SH2 and PTB domains. The following applies: cited from earlier work. From the text: Supplement pone.0044471.s022.xlsx, sheet "Most recent PM interactions" | column: Kd || Supplement pone.0044471.s022.xlsx, sheet "All original PM interactions" | column: Kd
Where [1] appears, read: Protein ABL2, most recent PM interactions, ref Jones et al. 2006 / Kaushansky et al. Chem and Biol 2008.
Setting [2] is: Protein ITK, most recent PM interactions, ref Jones et al. 2006 / Kaushansky et al. Chem and Biol 2008.
The mark [3] stands for this setting: Protein PIK3R1-N, most recent PM interactions, ref Jones et al. 2006 / Kaushansky et al. Chem and Biol 2008.
Where [4] appears, read: Protein PIK3R1-NC, most recent PM interactions, ref Jones et al. 2006 / Kaushansky et al. Chem and Biol 2008.
[5] abbreviates: Protein PIK3R2-N, most recent PM interactions, ref Jones et al. 2006 / Kaushansky et al. Chem and Biol 2008.
[6] abbreviates: Protein PIK3R2-NC, most recent PM interactions, ref Jones et al. 2006 / Kaushansky et al. Chem and Biol 2008.
The mark [7] stands for this setting: Protein PIK3R3-C, most recent PM interactions, ref Jones et al. 2006 / Kaushansky et al. Chem and Biol 2008.
Where [8] appears, read: Protein PIK3R3-N, most recent PM interactions, ref Jones et al. 2006 / Kaushansky et al. Chem and Biol 2008.
[9] abbreviates: Protein PIK3R3-NC, most recent PM interactions, ref Jones et al. 2006 / Kaushansky et al. Chem and Biol 2008.

By Kd is commonly meant the constant that tells how readily two partners part at equilibrium. With PLTCSPQPEpYVNQPDVR [ErbB2 1139], the Kd is 160 nM (Protein ABL1, most recent PM interactions, ref Jones et al. 2006 / Kaushansky et al. Chem and Biol 2008); 70 nM under setting [1]; 1000 nM (Protein BCAR3, most recent PM interactions, ref Jones et al. 2006 / Kaushansky et al. Chem and Biol 2008); 520 nM (Protein BMX, most recent PM interactions, ref Jones et al. 2006 / Kaushansky et al. Chem and Biol 2008); 450 nM (Protein FGR, most recent PM interactions, ref Jones et al. 2006 / Kaushansky et al. Chem and Biol 2008); 960 nM (Protein GRAP2, most recent PM interactions, ref Jones et al. 2006 / Kaushansky et al. Chem and Biol 2008). Also, the Kd (Protein GRB2, most recent PM interactions, ref Jones et al. 2006 / Kaushansky et al. Chem and Biol 2008) is 76 nM; the Kd under setting [2] was 1510 nM; the Kd (Protein NCK2, most recent PM interactions, ref Jones et al. 2006 / Kaushansky et al. Chem and Biol 2008) is 780 nM; the Kd under setting [3] was 510 nM; the Kd under setting [4] was 740 nM; the Kd under setting [5] was 280 nM. In addition, the Kd reads like this: under setting [6], 780 nM; under setting [7], 1220 nM; under setting [8], 400 nM; under setting [9], 300 nM; (Protein PLCG1-C, most recent PM interactions, ref Jones et al. 2006 / Kaushansky et al. Chem and Biol 2008) 1930 nM; (Protein PLCG2-NC, most recent PM interactions, ref Jones et al. 2006 / Kaushansky et al. Chem and Biol 2008) 1280 nM. The Kd is 880 nM (Protein PTPN11-NC, most recent PM interactions, ref Jones et al. 2006 / Kaushansky et al. Chem and Biol 2008); 680 nM (Protein RASA1-N, most recent PM interactions, ref Jones et al. 2006 / Kaushansky et al. Chem and Biol 2008); 980 nM (Protein SH2D2A, most recent PM interactions, ref Jones et al. 2006 / Kaushansky et al. Chem and Biol 2008); 410 nM (Protein SH3BP2, most recent PM interactions, ref Jones et al. 2006 / Kaushansky et al. Chem and Biol 2008); 970 nM (Protein SYK-NC, most recent PM interactions, ref Jones et al. 2006 / Kaushansky et al. Chem and Biol 2008); 570 nM (Protein TENC1, most recent PM interactions, ref Jones et al. 2006 / Kaushansky et al. Chem and Biol 2008). For the same substance, the Kd runs as follows: (Protein TNS3, most recent PM interactions, ref Jones et al. 2006 / Kaushansky et al. Chem and Biol 2008) 770 nM; (Protein VAV1, most recent PM interactions, ref Jones et al. 2006 / Kaushansky et al. Chem and Biol 2008) 210 nM; (Protein VAV2, most recent PM interactions, ref Jones et al. 2006 / Kaushansky et al. Chem and Biol 2008) 230 nM.

For the substance “PPPApYTPMSGNQd [ErbB4 pY1056, N-terminally rhodamine-labeled 13-mer phosphopeptide]”, the Kd runs as follows: (protein ABL2, ref Kaushansky et al. Chem and Biol 2008) 660 nM; (protein PIK3R1-N, ref Kaushansky et al. Chem and Biol 2008) 540 nM; (protein PIK3R1-NC, ref Kaushansky et al. Chem and Biol 2008) 1440 nM; (protein PIK3R2-N, ref Kaushansky et al. Chem and Biol 2008) 200 nM; (protein PIK3R2-NC, ref Kaushansky et al. Chem and Biol 2008) 460 nM; (protein PIK3R3-N, ref Kaushansky et al. Chem and Biol 2008) 890 nM. The Kd (protein PIK3R3-NC, ref Kaushansky et al. Chem and Biol 2008) was 580 nM.

On to “PSSGpYMPMNQGNd [ErbB3 pY1054, N-terminally rhodamine-labeled 13-mer phosphopeptide]”, for which the Kd (Protein ABL2, original PM interactions, ref Jones et al. 2006 / Kaushansky et al. Chem and Biol 2008) is 170 nM; the Kd (Protein ITK, original PM interactions, ref Jones et al. 2006 / Kaushansky et al. Chem and Biol 2008) was 1670 nM; the dissociation constant (Kd) (Protein PIK3R1-C, original PM interactions, ref Jones et al. 2006 / Kaushansky et al. Chem and Biol 2008) is 1000 nM; the Kd (Protein PIK3R1-N, original PM interactions, ref Jones et al. 2006 / Kaushansky et al. Chem and Biol 2008) is 570 nM; the Kd (Protein PIK3R1-NC, original PM interactions, ref Jones et al. 2006 / Kaushansky et al. Chem and Biol 2008) is 110 nM; the Kd (Protein PIK3R2-N, original PM interactions, ref Jones et al. 2006 / Kaushansky et al. Chem and Biol 2008) is 1000 nM. For the same substance, the dissociation constant (Kd) is 90 nM (Protein PIK3R2-NC, original PM interactions, ref Jones et al. 2006 / Kaushansky et al. Chem and Biol 2008); 110 nM (Protein PIK3R3-C, original PM interactions, ref Jones et al. 2006 / Kaushansky et al. Chem and Biol 2008); 1000 nM (Protein PIK3R3-N, original PM interactions, ref Jones et al. 2006 / Kaushansky et al. Chem and Biol 2008); 50 nM (Protein PIK3R3-NC, original PM interactions, ref Jones et al. 2006 / Kaushansky et al. Chem and Biol 2008); 1370 nM (Protein SHB, original PM interactions, ref Jones et al. 2006 / Kaushansky et al. Chem and Biol 2008); 2000 nM (Protein SHC1-PTB, original PM interactions, ref Jones et al. 2006 / Kaushansky et al. Chem and Biol 2008). Also, the Kd by setting is: (Protein SHF, original PM interactions, ref Jones et al. 2006 / Kaushansky et al. Chem and Biol 2008) 1230 nM; (Protein SYK-C, original PM interactions, ref Jones et al. 2006 / Kaushansky et al. Chem and Biol 2008) 1180 nM.

Regarding “QHPDpYLQEYSTKd [ErbB4 pY1258, N-terminally rhodamine-labeled 13-mer phosphopeptide]”, the Kd runs as follows: (protein ABL2, all original PM interactions, ref Jones et al. 2006 / Kaushansky et al. Chem and Biol 2008) 880 nM; (protein PIK3R3-NC, all original PM interactions, ref Jones et al. 2006 / Kaushansky et al. Chem and Biol 2008) 2000 nM; (protein PLCG1-C, all original PM interactions, ref Jones et al. 2006 / Kaushansky et al. Chem and Biol 2008) 2000 nM; (protein PLCG1-NC, all original PM interactions, ref Jones et al. 2006 / Kaushansky et al. Chem and Biol 2008) 2000 nM; (protein RASA1-N, all original PM interactions, ref Jones et al. 2006 / Kaushansky et al. Chem and Biol 2008) 2000 nM; (protein SHC1-PTB, all original PM interactions, ref Jones et al. 2006 / Kaushansky et al. Chem and Biol 2008) 2000 nM. In addition, the Kd (protein SLA, all original PM interactions, ref Jones et al. 2006 / Kaushansky et al. Chem and Biol 2008) was 2000 nM; the Kd (protein SYK-NC, all original PM interactions, ref Jones et al. 2006 / Kaushansky et al. Chem and Biol 2008) was 2000 nM; the Kd (protein VAV2, all original PM interactions, ref Jones et al. 2006 / Kaushansky et al. Chem and Biol 2008) is 2000 nM; the Kd (protein VAV2, ref Jones et al. 2006 / Kaushansky et al. Chem and Biol 2008) was 770 nM.

As to “QNPVpYHNQPLNPd [ErbB1 pY1110, N-terminally rhodamine-labeled 13-mer phosphopeptide]”, the Kd reads like this: (protein ABL1, ref Jones et al. 2006 / Kaushansky et al. Mol Biosys 2008 / Kaushansky et al. Chem and Biol 2008) 520 nM; (protein ABL2, ref Jones et al. 2006 / Kaushansky et al. Mol Biosys 2008 / Kaushansky et al. Chem and Biol 2008) 60 nM; (protein GRB2, ref Jones et al. 2006 / Kaushansky et al. Mol Biosys 2008 / Kaushansky et al. Chem and Biol 2008) 2000 nM; (protein NCK2, ref Jones et al. 2006 / Kaushansky et al. Mol Biosys 2008 / Kaushansky et al. Chem and Biol 2008) 2000 nM; (protein SHC1-PTB, ref Jones et al. 2006 / Kaushansky et al. Mol Biosys 2008 / Kaushansky et al. Chem and Biol 2008) 320 nM.

As for QSLLSPSSGpYMPMNQGN [ErbB3 1054], the Kd under setting [1] was 330 nM; the Kd under setting [2] was 1670 nM; the Kd (Protein PIK3R1-C, most recent PM interactions, ref Jones et al. 2006 / Kaushansky et al. Chem and Biol 2008) is 1000 nM; the Kd under setting [3] was 570 nM; the Kd under setting [4] is 920 nM; the Kd under setting [5] is 890 nM. In addition, the Kd runs as follows: under setting [6], 90 nM; under setting [7], 110 nM; under setting [8], 1320 nM; under setting [9], 490 nM; (Protein SHB, most recent PM interactions, ref Jones et al. 2006 / Kaushansky et al. Chem and Biol 2008) 1370 nM; (Protein SHF, most recent PM interactions, ref Jones et al. 2006 / Kaushansky et al. Chem and Biol 2008) 1230 nM. For the same substance, for the setting “Protein SYK-C, most recent PM interactions, ref Jones et al. 2006 / Kaushansky et al. Chem and Biol 2008”, the Kd is 1180 nM.
